Test systems include UACC-62 melanoma; HL-60(TB) leukemia; NCI-H522 lung; SF-539 CNS; ACHN renal; OVCAR-3 ovarian; RXF 393 renal; SK-MEL-5 melanoma.
Assay in all cases: NCI-60 cell line screen, 48 h

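In this assay, cells in 96-well plates receive the compound at five concentrations for 48 hours. Endpoints are linearly interpolated between the surrounding concentrations. At the TGI there is no net growth.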

As to `COc1cc2c(cc1O)CCN(C)[C@H]2Cc1ccc(Oc2c(O)c(OC)cc3c2C[C@H]2c4c(c(OC)c(OC)c(OC)c4-3)CCN2C)cc1`, the TGI is 9.44 µM with UACC-62 melanoma; 10.6 µM with HL-60(TB) leukemia; 11.2 µM in the assay with NCI-H522 lung; 11.5 µM in the assay on SF-539 CNS; 10.7 µM in the assay with ACHN renal; 10.6 µM in the assay on OVCAR-3 ovarian. The values for the TGI in the assay with RXF 393 renal and in the assay on SK-MEL-5 melanoma were 6.46 µM and 7.65 µM, respectively.

With `O=C1c2ccccc2C(=O)c2nn(N=P(CP(=Nn3nc4c(n3)C(=O)c3ccccc3C4=O)(c3ccccc3)c3ccccc3)(c3ccccc3)c3ccccc3)nc21`, the TGI in the assay with UACC-62 melanoma, in the assay on HL-60(TB) leukemia, in the assay on NCI-H522 lung, in the assay on SF-539 CNS, with ACHN renal and in the assay on OVCAR-3 ovarian was above 100 µM in each case. The TGI with RXF 393 renal and in the assay with SK-MEL-5 melanoma was above 100 µM throughout.

Consider `COC(=O)/C=C1\C(=O)C=C2[C@@H]3C[C@H]4C[C@H](CC[C@@]4(C)N21)C3(C)NC(C)=O` (some centres not stated), for which the TGI in the assay with UACC-62 melanoma was 35 µM; in the assay with HL-60(TB) leukemia, above 100 µM; in the assay with NCI-H522 lung, 3.6 µM; with SF-539 CNS, 9.54 µM; with ACHN renal, 46 µM; in the assay with OVCAR-3 ovarian, 29 µM. Moreover, the TGI was above 39.9 µM with RXF 393 renal and above 60 µM in the assay on SK-MEL-5 melanoma.

In the case of `O=c1nc2ccc3sc4ccccc4c(=O)c3n2c(=O)[nH]1`, the TGI in the assay on HL-60(TB) leukemia, with NCI-H522 lung, in the assay on SF-539 CNS, in the assay on ACHN renal, in the assay on OVCAR-3 ovarian and in the assay on RXF 393 renal was above 100 µM each time. The same molecule came in with a TGI with SK-MEL-5 melanoma above 100 µM.

Regarding `COc1ccc(OC)c(C[P+](c2ccccc2)(c2ccccc2)c2ccccc2)c1`, the TGI in the assay with UACC-62 melanoma was 12.8 µM; in the assay with HL-60(TB) leukemia, 3.29 µM; in the assay on NCI-H522 lung, above 39.4 µM; with SF-539 CNS, 39.2 µM; in the assay on ACHN renal it was above 64.2 µM; in the assay with OVCAR-3 ovarian, above 37.3 µM. Also, the TGI in the assay with RXF 393 renal was found to be 25.8 µM; with SK-MEL-5 melanoma, 3.32 µM.

In the case of `COC1(OC)C=CC(=O)C=C1`, the TGI came to 4.08 µM in the assay with UACC-62 melanoma; 15.6 µM in the assay on HL-60(TB) leukemia; 0.885 µM in the assay on NCI-H522 lung; 11.8 µM in the assay with SF-539 CNS; 8.56 µM in the assay on ACHN renal; 12.4 µM in the assay on OVCAR-3 ovarian. In addition, the results for the TGI in the assay with RXF 393 renal and in the assay with SK-MEL-5 melanoma were 4.51 µM and 46.2 µM, respectively.

Consider `Cc1ccc(/C=N\NC(=O)c2ccncc2)s1`, for which the TGI in the assay on UACC-62 melanoma, in the assay on HL-60(TB) leukemia, in the assay on NCI-H522 lung, in the assay on SF-539 CNS, in the assay with ACHN renal and in the assay with OVCAR-3 ovarian was above 100 µM throughout. The TGI in the assay with RXF 393 renal and in the assay on SK-MEL-5 melanoma was above 100 µM throughout.

As for `O=[N+]([O-])c1cc(F)ccc1Sc1ccccc1`, the TGI in the assay with UACC-62 melanoma, with HL-60(TB) leukemia, in the assay with NCI-H522 lung, in the assay with SF-539 CNS, with ACHN renal and with OVCAR-3 ovarian was above 10 µM in each case. For the same molecule, the TGI in the assay on RXF 393 renal and with SK-MEL-5 melanoma was above 10 µM in each case.

Consider `COC(=O)c1cc(C)ccc1C1CN=NC12Cc1c(C)cc(C)cc1C2=O` (configuration not stated), for which the TGI is 49.6 µM in the assay on UACC-62 melanoma; 29.3 µM in the assay on HL-60(TB) leukemia; 34.5 µM with NCI-H522 lung; 32.7 µM with SF-539 CNS; above 100 µM in the assay on ACHN renal; 75.5 µM in the assay with OVCAR-3 ovarian. Besides, the TGI is 72.5 µM in the assay with RXF 393 renal and 31.6 µM in the assay with SK-MEL-5 melanoma.

As to `COc1cc(S(=O)(=O)Nc2ccc(-c3csc(/N=C\c4ccccc4)n3)cc2)ccc1Cl`, the TGI in the assay on UACC-62 melanoma, in the assay on HL-60(TB) leukemia, in the assay with NCI-H522 lung, with SF-539 CNS, with ACHN renal and in the assay with OVCAR-3 ovarian was above 100 µM in each case. In addition, the TGI in the assay with RXF 393 renal and in the assay on SK-MEL-5 melanoma was above 100 µM each time.

As to `CCN(CC)C1Oc2cc3c(cc2C(c2cc(OC)c(OC)c(OC)c2)C1C)OCO3` (configuration not stated), the TGI in the assay on UACC-62 melanoma is 98.5 µM; with HL-60(TB) leukemia, 0.932 µM; in the assay with NCI-H522 lung it was 6.01 µM; in the assay with SF-539 CNS, 1.43 µM; with ACHN renal it was above 38.7 µM; in the assay with OVCAR-3 ovarian it was 5.79 µM. The figures for the TGI with RXF 393 renal and in the assay on SK-MEL-5 melanoma were above 44.1 µM and 6.68 µM, respectively.

Regarding `COc1cc2c(c(OC)c1)C(=O)O[C@H](C)CCCC/C=C/C2`, the TGI with UACC-62 melanoma is above 58 µM; with HL-60(TB) leukemia, 4.45 µM; in the assay on NCI-H522 lung, 24 µM; in the assay with SF-539 CNS, 25.9 µM; with ACHN renal, above 30.6 µM; with OVCAR-3 ovarian it was 28 µM. Also, the values for the TGI in the assay on RXF 393 renal and in the assay with SK-MEL-5 melanoma were 25.2 µM and 11.2 µM, respectively.

Regarding `O=c1[nH]c2cc([N+](=O)[O-])c(Nc3c4ccccc4nc4ccccc34)c([N+](=O)[O-])c2[nH]1`, the TGI in the assay on UACC-62 melanoma worked out at 4.53 µM; in the assay with HL-60(TB) leukemia, 9.39 µM; in the assay on NCI-H522 lung, 3.63 µM; in the assay on SF-539 CNS, 13.7 µM; in the assay with ACHN renal, 16.7 µM; with OVCAR-3 ovarian, 9.33 µM. The TGI in the assay on RXF 393 renal was found to be 10.1 µM; in the assay on SK-MEL-5 melanoma it was 7.65 µM.

On to `CC(=O)Nc1ccc(/C=C2/NC(=S)N(/C=C3\C(=O)Oc4ccccc4C3=O)C2=O)cc1`, for which the TGI in the assay on UACC-62 melanoma, in the assay with HL-60(TB) leukemia, in the assay with NCI-H522 lung, in the assay with SF-539 CNS, in the assay with ACHN renal and with OVCAR-3 ovarian was above 100 µM each time. The TGI in the assay on RXF 393 renal and in the assay on SK-MEL-5 melanoma was above 100 µM throughout.

On to `Cc1ccc(NC2=N/C(=C/c3ccco3)C(Cl)=N2)cc1`, for which the TGI in the assay with UACC-62 melanoma, in the assay on HL-60(TB) leukemia, in the assay on NCI-H522 lung, in the assay with SF-539 CNS, in the assay with ACHN renal and in the assay on OVCAR-3 ovarian was above 100 µM throughout. In addition, the TGI with RXF 393 renal and in the assay on SK-MEL-5 melanoma was above 100 µM each time.

In the case of `O=P(O)(O)C=C=C1CCCCC1`, the TGI in the assay with UACC-62 melanoma, in the assay with HL-60(TB) leukemia, with NCI-H522 lung, in the assay with SF-539 CNS, in the assay with ACHN renal and in the assay with OVCAR-3 ovarian was above 100 µM in each case. The TGI in the assay with RXF 393 renal and in the assay with SK-MEL-5 melanoma was above 100 µM in each case.

The record behind these values is PubChem BioAssay (NCI).
